Experimental data taken from ChEMBL document CHEMBL4689842, “EUbOPEN Chemogenomics Library wave 1” (2021).

Experiments:
[1] = tested on: HEK-293T; assay: Incucyte cell viability with HEK293T; format: toxicity, cell-based; conditions: human, 10 µM, compound concentration 10 uM
[2] = tested on: Fibroblast; assay: Incucyte cell viability with human fibroblast; format: toxicity, cell-based; conditions: 10 µM, compound concentration 10 uM
[3] = 6 h, replicate number 1, timepoint 6 hours
[4] = 12 h, replicate number 1, timepoint 12 hours
[5] = 18 h, replicate number 1, timepoint 18 hours
[6] = 24 h, replicate number 1, timepoint 24 hours
[7] = 0 h, replicate number 1, timepoint 0 hours
[8] = 0 h, replicate number 2, timepoint 0 hours
[9] = 12 h, replicate number 2, timepoint 12 hours
[10] = 18 h, replicate number 2, timepoint 18 hours
[11] = 6 h, replicate number 2, timepoint 6 hours
[12] = 24 h, replicate number 2, timepoint 24 hours
Further: filed as whole numbers so only -1 and 0 and 1 occur.

| SMILES | Growth Rate [1, 3] | Growth Rate [1, 4] | Growth Rate [1, 5] | Growth Rate [1, 6] | Growth Rate [2, 3] | Growth Rate [2, 4] | Growth Rate [2, 5] | Growth Rate [2, 6] | Growth Rate [1, 7] | Growth Rate [1, 8] | Growth Rate [2, 7] | Growth Rate [2, 9] | Growth Rate [2, 10] | Growth Rate [2, 11] | Growth Rate [2, 8] | Growth Rate [2, 12] | Growth Rate [1, 11] | Growth Rate [1, 12] | Growth Rate [1, 9] |
| --- | --- | --- | --- | --- | --- | --- | --- | --- | --- | --- | --- | --- | --- | --- | --- | --- | --- | --- | --- |
| C=CC(=O)Nc1cccc(Oc2nc(Nc3ccc(N4CCN(C)CC4)cc3OC)ncc2Cl)c1 | 0 | 0 | 0 | 0 | 0 | 0 | 0 | 0 |  |  |  |  |  |  |  |  |  |  |  |
| Cc1cccc(CN2CCN(C(c3ccccc3)c3ccc(Cl)cc3)CC2)c1.Cl.Cl (stereo not given) | 0 | 0 | 0 | 0 |  | 1 | 1 | 0 | 1 | 0 | 0 | 0 | 0 |  |  |  |  |  |  |
| C=CC(=O)Nc1cccc(Sc2nc(Nc3ccc(N4CCN(C)CC4)cc3)ncc2Cl)c1 | 0 | 0 | 0 | 0 | 0 | 0 | 0 | 0 |  |  |  |  |  |  |  |  |  |  |  |
| CC(C)OC(=O)N1CCC(Oc2ncnc3c2cnn3-c2ccc(S(C)(=O)=O)cc2F)CC1 | 0 | 0 | 0 | 0 | 1 | 1 | 1 | 0 |  | 1 | 0 | 0 | 0 | 0 |  |  |  |  |  |
| COc1cc(Nc2nccc(-c3cnn4nc(OC)ccc34)n2)cc(C(F)(F)F)c1 | 0 | 0 | 0 | 0 | 0 | 0 | 0 | 0 |  |  |  |  |  |  |  |  |  |  |  |
| O=c1cc(N2CCOCC2)oc2c(-c3cccc4c3sc3ccccc34)cccc12 | 0 | 0 | 0 | 0 | 0 | 0 | 0 | 0 |  |  |  |  | 1 |  | 0 | 1 |  |  |  |
| O=C(c1cc2c(cc1F)OC(c1ccc(F)cc1)(c1ccc(Cl)cc1Cl)O2)N1CCOCC1 (stereo not given) | 0 | 0 | 0 | 0 |  |  | 1 | 1 | 0 |  | 0 | 0 | 0 |  |  | 0 |  |  |  |
| CC(C)NC(=O)N1CC[C@H](NC2=Nc3cc(F)ccc3N(CC(F)F)c3ccc(Cl)cc32)C1 |  | 1 | 1 | 1 | 0 | 0 | 0 | 0 | 0 |  |  |  |  |  |  |  | 0 | 0 |  |
| CC(C)Oc1ccccc1C(=O)Nc1ccccc1C(=O)Nc1cccc(S(=O)(=O)C(F)(F)F)c1 | 0 | 0 | 0 | 0 |  |  |  | 1 | 0 |  | 0 |  |  |  |  |  |  |  |  |
| CC1=C(C(=O)Nc2cc3cn[nH]c3cc2F)C(c2ccc(C(F)(F)F)cc2)CC(=O)N1 (stereo not given) |  |  |  | 1 |  |  |  | 1 | 0 |  | 0 |  |  |  |  |  |  |  |  |
| Cc1nc(N2CC[C@H](O)C2)ncc1-c1cc(C(F)(F)F)cc2[nH]ncc12 | 0 | 0 | 0 | 0 | 1 | 0 | 0 | 0 | 1 |  | 0 |  |  | 0 |  |  |  |  |  |
| CN1CCN(Cc2cc(NC(=O)c3ccc4c(c3)CN(c3ccccc3)CC4)cc(C(F)(F)F)c2)CC1 | 0 | 0 | 0 | 0 | 0 | 0 | 0 | 0 |  |  |  |  |  |  | 1 |  |  |  |  |
| Cl.O=C(O)c1cc(-c2ccc(C3CCNCC3)cc2)c2ccc(-c3ccc(C(F)(F)F)cc3)cc2c1 | 0 | 0 | 0 | 0 |  | 1 | 1 | 1 | 0 |  | 0 | 0 | 0 | 0 |  | 0 | 1 |  |  |
| O=c1[nH]c2ccccc2n1C1CCN(Cc2ccc(-c3[nH]c4cc5ncnc5cc4nc3-c3ccccc3)cc2)CC1 | 0 | 0 | 0 | 0 |  | 1 | 0 | 0 |  | 1 |  |  |  |  | 0 |  |  |  |  |
| CCc1ccc(OCc2ccccc2C(=O)Nc2ccc3nc(C)cc(N)c3c2)cc1.Cl | 0 | 0 | 0 | 0 | 0 | 0 | 0 | 0 |  |  | 0 |  |  |  |  |  |  |  |  |
| CNC(=O)Nc1ccc(-c2nc(N3CC4CCC(C3)O4)c3cnn(C4CCC5(CC4)OCCO5)c3n2)cc1 | 0 | 0 | 0 | 0 | 0 | 0 | 0 | 0 |  |  | 1 |  |  |  | 0 |  |  |  |  |
| CNC(=O)Nc1ccc2c(c1)[C@@]1(CC2)OC(=O)N(CC(=O)N(Cc2ccc(F)cc2)[C@@H](C)C(F)(F)F)C1=O [A-486] | 0 | 0 | 0 | 0 | 0 | 0 | 0 | 0 | 1 |  |  | 1 | 1 |  | 0 |  |  |  |  |
| CNCc1ccccc1-c1csc([C@@H](C)Nc2nc(C)nc3cc(OC)c(OC)cc23)c1 [BAY-293] | 0 | 0 | 0 | 0 | 0 | 0 | 0 | 0 |  |  |  |  |  |  |  |  |  |  |  |
| Cc1cc(NC(=O)c2cccc(S(F)(F)(F)(F)F)c2)cc(-n2ccn3nc(-c4cccnc4)cc23)c1 [BAY-309] | 0 | 0 | 0 | 0 | 0 | 0 | 0 | 0 | 1 |  | 1 |  |  |  |  |  |  |  |  |
| Cc1c[nH]c2nccc(Oc3c(F)cc(Nc4cc(Cl)nc(N)n4)cc3F)c12 [BAY-549] | 0 | 0 | 0 | 0 |  | 0 | 0 | 0 | 0 |  | 0 | 1 |  |  |  |  |  |  |  |
| Cc1cc(C)c(-n2ccn3nc(-c4cccnc4)cc23)cc1NC(=O)c1cc(C#N)cc(S(F)(F)(F)(F)F)c1 [BAY-826] | 0 | 0 | 0 | 0 | 1 | 1 | 1 | 1 | 0 |  | 0 |  |  |  |  |  |  |  |  |
| COc1ccc(-c2ccc3ncc4c(c3c2)n(-c2ccc(N3CCNCC3)c(C(F)(F)F)c2)c(=O)n4C)cn1.O=C(O)/C=C\C(=O)O [BGT-226] | 0 | 0 | 0 | 0 | 0 | 0 | 0 | 0 |  |  | 0 |  |  |  |  |  |  |  |  |
| C=CC(=O)Nc1ccc2[nH]c(=O)n(C3CCN(Cc4ccc(-c5nc6cc[nH]c(=O)c6cc5-c5ccccc5)cc4)CC3)c2c1 [Borussertib] | 0 | 0 | 0 | 0 |  | 1 | 1 | 1 | 0 | 1 | 0 |  | 0 | 0 |  | 0 |  |  |  |
| COc1ccccc1CN[C@H]1C2CCN(CC2)[C@H]1C(c1ccccc1)c1ccccc1 [CP-96345] | 0 | 0 | 0 | 0 |  | 1 | 1 | 1 | 1 | 0 | 0 | 0 | 0 | 0 |  | 0 |  |  |  |
| CNC(=O)c1ccc(Nc2ncc(C(F)(F)F)c(NCc3nccnc3N(C)S(C)(=O)=O)n2)cc1 [DEFACTINIB] | 0 | 0 | 0 | 0 |  | 0 | 0 | 0 | 1 |  | 0 | 1 |  | 1 | 1 |  |  |  |  |
| CN1CCN(Cc2ccc(Nc3ncc(Cl)c(Nc4ccccc4S(=O)(=O)N(C)C)n3)cc2)CC1 [DUBERMATINIB] |  | 1 | 0 | 0 |  | 1 | 0 | 0 | 0 | 1 | 0 | 0 |  |  |  |  | 0 |  | 0 |
| C#Cc1cccc(Nc2ncnc3cc(OCCOC)c(OCCOC)cc23)c1 [ERLOTINIB] | 0 | 0 | 0 | 0 | 0 | 0 | 0 | 0 | 0 |  | 0 | 1 |  |  |  |  |  |  |  |
| C[C@]12CC[C@@H]3c4ccc(O)cc4CC[C@H]3[C@@H]1CC[C@@H]2O [ESTRADIOL] | 0 | 0 | 0 | 0 | 0 | 0 | 0 | 0 | 1 | 0 | 0 |  |  |  |  |  |  |  |  |
| CC(C)c1noc(N2CCC(COc3ccc(-c4ccc(S(C)(=O)=O)cc4)nc3)CC2)n1 [GSK-1292263] | 0 | 0 | 0 | 0 | 0 | 0 | 0 | 0 |  | 0 | 0 |  |  |  |  |  |  |  |  |
| COc1cc2ncn(-c3cc(OCc4ccccc4C(F)(F)F)c(C(N)=O)s3)c2cc1OC [GW843682X] |  | 0 | 0 | 0 | 1 | 0 | 0 | 0 | 0 |  | 0 |  |  |  |  |  |  |  |  |
